Experimental data from patent US7838674B2, “Tetracyclic lactame derivatives” (Novartis AG, priority 2007, dated 2010).
Counter-ions that a name gives are not always drawn.

Target: human MK2 (Homo sapiens, UniProt P49137)
Assay: MAPKAPK2 kinase assay (TR-FRET, Hsp27 peptide substrate)
Settings: not given

human MK2, sequence (P49137 whole entry): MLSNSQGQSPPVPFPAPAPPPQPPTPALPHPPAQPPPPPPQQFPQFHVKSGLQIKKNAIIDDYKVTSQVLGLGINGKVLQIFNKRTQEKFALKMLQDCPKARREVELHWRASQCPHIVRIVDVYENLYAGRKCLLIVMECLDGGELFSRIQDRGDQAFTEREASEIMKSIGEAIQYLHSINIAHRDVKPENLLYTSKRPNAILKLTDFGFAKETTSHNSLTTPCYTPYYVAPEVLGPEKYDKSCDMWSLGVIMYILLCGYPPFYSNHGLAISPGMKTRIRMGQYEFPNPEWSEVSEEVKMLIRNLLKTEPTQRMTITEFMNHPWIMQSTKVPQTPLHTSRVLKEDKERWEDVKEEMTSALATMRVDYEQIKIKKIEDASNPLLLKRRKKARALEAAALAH

IC50 [nM] | Structure (SMILES)
21 | O=C1NCC2(CC2)c2[nH]c3c(c21)CCc1cnc(/C=C/c2ccccc2)cc1-3 [Example 2, 2-(1-Aminomethyl-cyclopropyl)-8-((E)-styryl)-4,5-dihydro-1H-pyrrolo[2,3-f]isoquinoline-3-carboxylic acid lactame]
63 | COCCOc1cncc(-c2cc3c(cn2)CCc2c-3[nH]c3c2C(=O)NC2(CCC2)C3)c1 [Example 3, 2-(1-Amino-cyclobutylmethyl)-8-[5-(2-methoxy-ethoxy)-pyridin-3-yl]-4,5-dihydro-1H-pyrrolo[2,3-f]isoquinoline-3-carboxylic acid lactame]

Target: T1, MAPKAPK2 enzyme (HIS-MK2, Invitrogen PV4019) (Homo sapiens, UniProt P49137)
T1 construct: His; purchased Invitrogen PV4019
Assay: Alternative MAPKAPK2 assay (Caliper microfluidic mobility shift, HSP27-peptide)
Type: biochemical
Settings: HIS-MK2 0.013 nM, ATP 10 μM, 60 min at 30° C.

T1 sequence (P49137 whole entry): as above

Structure (SMILES) | IC50 [nM]
CN1CC2(C1)c1[nH]c3c(c1C(=O)NC21CC1)CCc1cnc(-c2ccc(CCCN4CCOCC4)cc2)cc1-3 [Example 260, 2-[3-(1-Amino-cyclopropyl)-1-methyl-azetidin-3-yl]-8-[4-(3-morpholin-4-yl-propyl)-phenyl]-4,5-dihydro-1H-pyrrolo[2,3-f]isoquinoline-3-carboxylic acid lactam] | < 3
O=C(NCc1ccccc1)c1cccc(-c2cc3c(cn2)CCc2c-3[nH]c3c2C(=O)NCC32CN(CC3CC3)C2)c1 [Example 261, 2-(3-Aminomethyl-1-cyclopropylmethyl-azetidin-3-yl)-8-(3-benzylcarbamoyl-phenyl)-4,5-dihydro-1H-pyrrolo[2,3-f]isoquinoline-3-carboxylic acid lactam] | 11
CN1CC2(CNC(=O)c3c2[nH]c2c3CCc3cnc(-c4cccc(C(=O)NCc5ccccc5)c4)cc3-2)C1 [Example 262, 2-(3-Aminomethyl-1-methyl-azetidin-3-yl)-8-(3-benzylcarbamoyl-phenyl)-4,5-dihydro-1H-pyrrolo[2,3-f]isoquinoline-3-carboxylic acid lactam] | < 3
CCN1CC2(CNC(=O)c3c2[nH]c2c3CCc3cnc(-c4cccc(C(=O)NCc5ccccc5)c4)cc3-2)C1 [Example 263, 2-(3-Aminomethyl-1-ethyl-azetidin-3-yl)-8-(3-benzylcarbamoyl-phenyl)-4,5-dihydro-1H-pyrrolo[2,3-f]isoquinoline-3-carboxylic acid lactam] | < 3
O=C1NC2(CC2)Cc2[nH]c3c(c21)CCc1cnc(Oc2ccc(F)cc2F)nc1-3 [Example 266, 2-(1-Amino-cyclopropylmethyl)-8-(2,4-difluoro-phenoxy)-4,5-dihydro-1H-1,7,9-triaza-cyclopenta[a]naphthalene-3-carboxylic acid lactam] | > 10
COc1ccc(-c2ncc3c(n2)-c2[nH]c4c(c2CC3)C(=O)NCC42CNC2)cc1F [Example 268, 2-(3-Aminomethyl-azetidin-3-yl)-8-(3-fluoro-4-methoxy-phenyl)-4,5-dihydro-1H-1,7,9-triaza-cyclopenta[a]naphthalene-3-carboxylic acid lactan hydrochloride] | 8
O=C(NCc1ccccc1)c1ccc(-c2cc3c(cn2)CCc2c-3[nH]c3c2C(=O)NC2(CC2)C3)o1 [Example 282, 5-(9,9-Spirocyclopropyl-7-oxo-6,7,8,9,10,11-hexahydro-5H-3,8,11-triaza-benzo[a]fluoren-2-yl)-furan-2-carboxylic acid benzylamide] | 21
COc1ncc(-c2cc3c(cn2)CCc2c-3[nH]c3c2C(=O)NC2(CC2)C3)s1 [Example 283, 2-(1-Amino-cyclopropylmethyl)-8-(2-methoxy-5-thiazolyl)-4,5-dihydro-1H-pyrrolo[2,3-f]isoquinoline-3-carboxylic acid lactam] | 98
O=C1NC2(CNC2)Cc2[nH]c3c(c21)CCc1cnc(-c2cccc(Br)c2)nc1-3 [Example 285, 2-(3-Amino-azetidin-3-ylmethyl)-8-(3-bromo-phenyl)-4,5-dihydro-1H-1,7,9-triaza-cyclopenta[a]naphthalene-3-carboxylic acid lactam hydrochloride] | 7
Cn1c2c(c3c1-c1nc(-c4cccc(Br)c4)ncc1CC3)C(=O)NC1(CNC1)C2 [Example 286, 2-(3-Amino-azetidin-3-ylmethyl)-8-(3-bromo-phenyl)-1-methyl-4,5-dihydro-1H-1,7,9-triaza-cyclopenta[a]naphthalene-3-carboxylic acid lactam hydrochloride] | 48
Cn1c2c(c3c1-c1nc(-c4cccc(C#N)c4)ncc1CC3)C(=O)NC1(CNC1)C2 [Example 287, 2-(3-Amino-azetidin-3-ylmethyl)-8-(3-cyano-phenyl)-1-methyl-4,5-dihydro-1H-1,7,9-triaza-cyclopenta[a]naphthalene-3-carboxylic acid lactam hydrochloride] | 25
O=C(NCc1ccccc1)c1cncc(-c2ncc3c(n2)-c2[nH]c4c(c2CC3)C(=O)NCC42CC2)c1 [Example 290, N-Benzyl-5-(10-spirocyclopropyl-7-oxo-6,7,8,9,10,11-hexahydro-5H-1,3,8,11-tetraaza-benzo[a]fluoren-2-yl)-nicotinamide] | 86
Cn1c2c(c3c1-c1nc(-c4cncc(C(=O)NCc5ccccc5)c4)ncc1CC3)C(=O)NC1(CNC1)C2 [Example 296, 2-(3-Amino-azetidin-3-ylmethyl)-8-(3-benzylcarbamoyl-3-pyridyl)-1-methyl-4,5-dihydro-1H-1,7,9-triaza-cyclopenta[a]naphthalene-3-carboxylic acid lactam hydrochloride] | 17
O=C1NCC2(CCC2)c2[nH]c3c(c21)CCc1cnc(-c2ccc(CN4CCOCC4)c(F)c2)cc1-3 [Example 298, 2-(3-Fluoro-4-morpholin-4-ylmethyl-phenyl)-10-spirocyclobutyl-5,6,8,9,10,11-exahydro-3,8,11-triaza-benzo[a]fluoren-7-one] | 20
COc1ccc(-c2cc3c(cn2)CCc2c-3[nH]c3c2C(=O)NCC32CCC2)cc1F [Example 299, 2-(3-Fluoro-4-methoxy-phenyl)-10-spirocyclobutyl-5,6,8,9,10,11-hexahydro-3,8,11-triaza-benzo[a]fluoren-7-one] | 39

Second part, the compound after the results:

IC50 [nM] | Structure (SMILES)
15 | O=C1NCC2(CCC2)c2[nH]c3c(c21)CCc1cnc(-c2ccc(F)nc2)cc1-3 [Example 300, 2-(6-Fluoro-pyridin-3-yl)-10-spirocyclobutyl-5,6,8,9,10,11-hexahydro-3,8,11-triaza-benzo[a]fluoren-7-one]
22 | O=C1NCC2(CC2)c2[nH]c3c(c21)CCc1cnc(-c2cncc(N4CCOCC4)c2)cc1-3 [Example 302, 2-(5-Morpholin-4-yl-pyridin-3-yl)-10-spirocyclopropyl-5,6,8,9,10,11-hexahydro-3,8,11-triaza-benzo[a]fluoren-7-one]
8 | CC(=O)N1CCN(c2ccc(-c3cc4c(cn3)CCc3c-4[nH]c4c3C(=O)NCC43CC3)cc2C#N)CC1 [Example 313, 2-(4-Acetyl-piperazin-1-yl)-10-spirocyclopropyl-5-(7-oxo-6,7,8,9,10,11-hexahydro-5H-3,8,11-triaza-benzo[a]fluoren-2-yl)-benzonitrile]
12 | CC(C)N1CCN(c2ccc(-c3cc4c(cn3)CCc3c-4[nH]c4c3C(=O)NCC43CC3)cc2C#N)CC1 [Example 314, 2-(4-Isopropyl-piperazin-1-yl)-10-spirocyclopropyl-5-(7-oxo-6,7,8,9,10,11-hexahydro-5H-3,8,11-triaza-benzo[a]fluoren-2-yl)-benzonitrile]
9 | N#Cc1cc(-c2cc3c(cn2)CCc2c-3[nH]c3c2C(=O)NCC32CC2)ccc1N1CCN(CCO)CC1 [Example 315, 2-[4-(2-Hydroxy-ethyl)-piperazin-1-yl]-10-spirocyclopropyl-5-(7-oxo-6,7,8,9,10,11-hexahydro-5H-3,8,11-triaza-benzo[a]fluoren-2-yl)-benzonitrile]
11 | CN1CCN(c2ccc(-c3cc4c(cn3)CCc3c-4[nH]c4c3C(=O)NCC43CC3)cn2)CC1 [Example 316, 2-[6-(4-Methyl-piperazin-1-yl)-pyridin-3-yl]-10-spirocyclopropyl-5,6,8,9,10,11-hexahydro-3,8,11-triaza-benzo[a]fluoren-7-one]
51 | CN1CCN(c2c(F)cc(-c3cc4c(cn3)CCc3c-4[nH]c4c3C(=O)NCC43CC3)cc2C#N)CC1 [Example 317, 3-Fluoro-2-(4-methyl-piperazin-1-yl)-10-spirocyclopropyl-5-(7-oxo-6,7,8,9,10,11-hexahydro-5H-3,8,11-triaza-benzo[a]fluoren-2-yl)-benzonitrile]
6 | CN(C)C1CCN(c2ccc(-c3cc4c(cn3)CCc3c-4[nH]c4c3C(=O)NCC43CC3)cc2C#N)C1 (centres unmarked) [Example 318, 2-(3-Dimethylamino-pyrrolidin-1-yl)-10-spirocyclopropyl-5-(7-oxo-6,7,8,9,10,11-hexahydro-5H-3,8,11-triaza-benzo[a]fluoren-2-yl)-benzonitrile]
38 | N#Cc1cc(-c2cc3c(cn2)CCc2c-3[nH]c3c2C(=O)NCC32CC2)ccc1CN1CCOCC1 [Example 319, 2-Morpholin-4-ylmethyl-10-spirocyclopropyl-5-(7-oxo-6,7,8,9,10,11-hexahydro-5H-3,8,11-triaza-benzo[a]fluoren-2-yl)-benzonitrile]
9 | CN1CCN(c2ccc(-c3cc4c(cn3)CCc3c-4[nH]c4c3C(=O)NC3(CC3)C4)cc2C#N)CC1 [Example 321, 2-(4-Methyl-piperazin-1-yl)-9-spirocyclopropyl-5-(7-oxo-6,7,8,9,10,11-hexahydro-5H-3,8,11-triaza-benzo[a]fluoren-2-yl)-benzonitrile]
15 | O=C1NCC2(CNC2)c2[nH]c3c(c21)CCc1cnc(-c2ccc(CN4CCOCC4)c(F)c2)nc1-3 [Example 326, 2-(3-Aminomethyl-azetidin-3-yl)-8-(3-fluoro-4-morpholin-4-ylmethyl-phenyl)-4,5-dihydro-1H-1,7,9-triaza-cyclopenta[a]naphthalene-3-carboxylic acid lactam]
6 | O=C1NCC2(CNC2)c2[nH]c3c(c21)CCc1cnc(-c2ccc(N4CCOCC4)nc2)nc1-3 [Example 329, 2-(3-Aminomethyl-azetidin-3-yl)-8-(6-morpholin-4-yl-pyridin-3-yl)-4,5-dihydro-1H-1,7,9-triaza-cyclopenta[a]naphthalene-3-carboxylic acid lactam]
